Test results reported in patent publication US8404849B2, “Processes for producing modulators of cystic fibrosis transmembrane conductance regulator” (Vertex Pharmaceuticals, priority 2010, dated 2013).
pEC50: −log10 of the molar value.

Target: T1, ΔF508-CFTR (Homo sapiens, UniProt P13569, DEL508-508)
T1 construct: expressed in transfected cells; host or cells: NIH3T3 mouse fibroblasts, stably expressing, cultured at 27 °C (temperature-corrected)
Experiment: Membrane potential optical assay for identification of ΔF508-CFTR potentiators (FLIPR III, forskolin activation)
Format: cell-based
Settings: for Emax: NIH3T3, 100% efficacy is the maximum response obtained with 4-methyl-2-(5-phenyl-1H-pyrazol-3-yl)phenol, ΔF508 CFTR NIH 3T3 cells; for pEC50: temperature-corrected ΔF508 CFTR NIH 3T3 cells
Excerpt: The assay utilizes fluorescent voltage sensing dyes to measure changes in membrane potential using a fluorescent plate reader (e.g., FLIPR III, Molecular Devices, Inc.) as a readout for increase in functional ΔF508-CFTR in NIH 3T3 cells. The driving force for the response is the creation of a chloride ion gradient in conjunction with channel activation by a single liquid addition step after the cells have previously been treated with compounds and subsequently loaded with a voltage sensing dye.
To identify potentiators of ΔF508-CFTR, a double-addition HTS assay format was developed. This HTS assay utilizes fluorescent voltage sensing dyes to measure changes in membrane potential on the FLIPR III as a measurement for increase in gating (conductance) of ΔF508 CFTR in temperature-corrected ΔF508 CFTR NIH 3T3 cells. The driving force for the response is a Cl^− ion gradient in conjunction with channel activation with forskolin in a single liquid addition step using a fluorescent plate reader such as FLIPR III after the cells have previously been treated with potentiator compounds (or DMSO vehicle control) and subsequently loaded with a redistribution dye.
Solutions • Bath Solution #1: (in mM) NaCl 160, KCl 4.5, CaCl2 2, MgCl2 1, HEPES 10, pH 7.4 with NaOH. Chloride-Free Bath Solution: Chloride Salts in Bath Solution #1 are Substituted with Gluconate Salts.
NIH3T3 mouse fibroblasts stably expressing ΔF508-CFTR are used for optical measurements of membrane potential. The cells are maintained at 37° C. in 5% CO2 and 90% humidity in Dulbecco's modified Eagle's medium supplemented with 2 mM glutamine, 10% fetal bovine serum, 1×NEAA, β-ME, 1× pen/strep, and 25 mM HEPES in 175 cm^2 culture flasks. For all optical assays, the cells were seeded at ˜20,000/well in 384-well matrigel-coated plates and cultured for 2 hrs at 37° C. before culturing at 27° C. for 24 hrs. for the potentiator assay. For the correction assays, the cells are cultured at 27° C. or 37° C. with and without compounds for 16-24 hours.

T1 sequence (P13569 with tags, fused parts or gaps DEL508-508): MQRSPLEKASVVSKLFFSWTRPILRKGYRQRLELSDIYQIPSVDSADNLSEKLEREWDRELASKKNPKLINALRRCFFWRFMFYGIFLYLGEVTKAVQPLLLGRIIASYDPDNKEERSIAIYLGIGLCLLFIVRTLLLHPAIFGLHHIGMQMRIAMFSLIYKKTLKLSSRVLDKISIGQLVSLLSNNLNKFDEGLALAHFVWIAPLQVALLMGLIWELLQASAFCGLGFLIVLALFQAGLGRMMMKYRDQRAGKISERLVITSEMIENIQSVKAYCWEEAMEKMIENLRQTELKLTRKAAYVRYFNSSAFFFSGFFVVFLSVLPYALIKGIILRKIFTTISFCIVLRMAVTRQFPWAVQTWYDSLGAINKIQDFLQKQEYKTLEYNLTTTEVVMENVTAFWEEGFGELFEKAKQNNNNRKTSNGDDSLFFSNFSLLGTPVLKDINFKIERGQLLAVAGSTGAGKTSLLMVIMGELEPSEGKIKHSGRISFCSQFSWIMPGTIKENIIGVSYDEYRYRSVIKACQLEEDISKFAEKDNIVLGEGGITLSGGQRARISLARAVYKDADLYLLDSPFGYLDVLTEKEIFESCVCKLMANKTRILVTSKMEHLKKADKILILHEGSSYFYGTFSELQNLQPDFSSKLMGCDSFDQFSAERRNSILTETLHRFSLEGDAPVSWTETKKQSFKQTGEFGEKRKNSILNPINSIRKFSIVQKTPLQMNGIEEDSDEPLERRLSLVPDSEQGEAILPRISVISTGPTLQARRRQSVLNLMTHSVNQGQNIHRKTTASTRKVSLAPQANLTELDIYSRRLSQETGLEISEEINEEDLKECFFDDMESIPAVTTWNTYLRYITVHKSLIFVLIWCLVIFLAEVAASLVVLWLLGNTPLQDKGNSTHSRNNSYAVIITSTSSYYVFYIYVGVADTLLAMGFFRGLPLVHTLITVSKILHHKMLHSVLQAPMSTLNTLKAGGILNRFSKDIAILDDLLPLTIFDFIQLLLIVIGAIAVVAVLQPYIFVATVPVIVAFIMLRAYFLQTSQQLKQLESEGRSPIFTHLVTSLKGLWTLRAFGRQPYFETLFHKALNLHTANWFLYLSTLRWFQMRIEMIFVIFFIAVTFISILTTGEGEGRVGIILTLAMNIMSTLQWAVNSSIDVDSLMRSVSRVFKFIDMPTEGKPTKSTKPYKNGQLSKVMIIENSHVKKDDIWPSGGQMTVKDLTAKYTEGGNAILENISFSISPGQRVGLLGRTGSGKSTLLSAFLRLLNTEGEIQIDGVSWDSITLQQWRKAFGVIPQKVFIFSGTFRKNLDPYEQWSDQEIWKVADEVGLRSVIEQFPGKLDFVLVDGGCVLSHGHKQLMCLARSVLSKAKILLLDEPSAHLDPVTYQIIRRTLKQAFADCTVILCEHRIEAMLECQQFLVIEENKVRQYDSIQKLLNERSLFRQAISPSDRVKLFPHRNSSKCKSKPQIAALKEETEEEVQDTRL

| SMILES | Emax | pEC50 |
| --- | --- | --- |
| O=C(Nc1ccc(N2C3CCC2CC3)cc1C(F)(F)F)c1c[nH]c2cccc(C(F)(F)F)c2c1=O [Formula II, N-(4-(7-azabicyclo[2.2.1]heptan-7-yl)-2-(trifluoromethyl)phenyl)-4-oxo-5-(trifluoromethyl)-1,4-dihydroquinoline-3-carboxamide] | 25 to 100% | > 5.70 |
| O=C(Nc1ccc(N2[C@@H]3CC[C@H]2[C@H](O)C3)cc1C(F)(F)F)c1c[nH]c2cccc(C(F)(F)F)c2c1=O (relative stereo) [Compound 1b] | > 100% | > 5.70 |
| O=C(Nc1ccc(N2C3CCC2[C@H](O)C3)cc1C(F)(F)F)c1c[nH]c2cccc(C(F)(F)F)c2c1=O (stereo partly drawn) [Compound 1a] | 25 to 100% | > 5.70 |
